Data from patent US20160160189A1, “Truncated Constructs of RIPK3 and Related Uses” (ST. JUDE CHILDREN'S RESEARCH HOSPITAL, priority 2013, published 2016).

Tested on: cells expressing RIPK1-FRB/RIPK3-FKBP
Assay: Heterodimerizer-induced RIPK1/RIPK3 necrosis, annexin V-FITC
Assay type: cell-based
Conditions: data not shown
Method: FIG. 6 provides a schematic for inducible RIPK-necrosis. Two systems for inducible RIPK-necrosis. […] Cell death in cells expressing RIPK1-FRB/RIPK3-FKBP and treated with heterodimerizer, and death was detected with annexin V-FITC. Death was inhibited by necrostatin-1 (not shown) (FIG. 6B). Cells expressing RIPK3ΔC-FKBPx2, treated with homodimerizer (1-100 nM); death was detected at 3 hrs by PI uptake. No effect of zVAD-fmk or necrostatin was observed (FIG. 6B).
An inducible dimer system has been employed to trigger homodimerization of caspase-8 in cells (27). The data provided herein support methods to induce RIPK-dependent necrosis by related approaches (FIG. 6A). Heterodimerization of RIPK1 and RIPK3 results in necrosis (see FIG. 6B) which is enhanced by inhibition of caspases and blocked by inhibition of RIPK1 (with nec1, data not shown). In contrast, truncated RIPK3 (lacking the RHIM domain for interaction with RIPK1) can only be oligomerized when FKBP domains (e.g., for example, two domains) that allow multiple monomers to be brought together by the dimerizing agent. Addition of the homodimerization agent to cells expressing this construct induces extremely rapid necrosis that that depends on the kinase activity of RIPK3, but is not affected by inhibition of caspases or nec1 treatment (FIG. 6C).

For CN1C(=O)C(Cc2c[nH]c3ccccc23)NC1=S (centres unmarked) [necrostatin-1, Necrostatin-1], the “effect on heterodimerizer-induced death” value was “inhibited” and the “effect on heterodimerizer-induced death” value (listed as nec1) was “blocked”.
